Where a name gives a salt, the structure may show the parent alone. Read-outs that look alike come from different tables or passages of the source. Blank lines part the entries; values can stand above or below the compound they belong to.
Key:
yeast fever of the rat = assay: Antipyretic action on yeast fever of the rat; format: in vivo; conditions: 12% yeast 20 ml/kg SC, rectal
Procedure: Investigation of the Antipyretic Action on Yeast Fever of the Rat Method: Experimental animals were male rats (SIV 50), fasted for 20 hours, with a body weight of 115-165 g. For the production of an elevated body temperature, the animals received, 18 hours before administration of the test substances, 20 ml/kg body of a 12% dry yeast suspension subcutaneously in two to three depots. A control group received the corresponding volume of physiological NaCl solution injected subcutaneously. Ten animals were used per dosage. After three preliminary measurementds of the body temperature on the experimental day in 30-minute intervals, the test substance was administered intragastrally to the animals treated with yeast. The volume of administration amounted to 20 ml/kg body weight. A second control group treated with yeast, as well as the control group treated the previous day with physiological NaCl solution, received the corresponding vehicle instead of test substance. The body temperature of the experimental animals was measured rectally by means of thermocouple sensor 30, 60 minutes and then, in each case, hourly up to a total of five hours after substance administration.

[1] = system: carrageenin edema of the rat (paw edema); assay: Antiphlogistic action on carrageenin edema of rats; format: in vivo; conditions: 3 h after carrageenin
Procedure: Investigation of the Antiphlogistic Action on Carrageenin Edema of Rats Method: Experimental animals were male rats (SIV 50), fasted for 20 hours, with a body weight of 110-160 g. Water was available ad libitum. After determination of the initial value of the paw volume of the right hind extremity, the test substances were administered intragastrally as suspension in 0.8% Methocel. Ten animals were used per dosage. The volume of administration amounted to 20 ml/kg body weight. The paw volume was measured plethysmometrically. Sixty minutes after intragastral administration of the test substances, 0.1 ml of a 1% carrageenin solution was injected subplanatary into the right hind paw. One and three hours after injection of the carrageenin, the paw volume of the oedematous paw was measured. The increase of the paw volume of the substance-treated animals after three hours was compared with that in the case of the control animals and the inhibition of the paw edema by the test substance was calculated as a percentage thereof.

[2] = system: thrombocyte aggregation (platelet-rich plasma); assay: Collagen-induced thrombocyte aggregation in vitro (rats); format: cell-based, rat; conditions: for IC50: rat PRP, collagen-induced, 3 min incubation, end concentration lowering amplitude by 50%, read-out: C50-value (arith. M. + S.D.)
Procedure: Collagen-Induced Thrombocyte Aggregation In Vitro (Rats) Method: The test was carried out according to the method of BORN (Nature, 194, 927-929, 1962). As blood donors, there served male Sprague-Dawley SIV 50 rats with a body weight of 200 g. The blood sampling took place, under ether narcosis, from the retroorbital venous complex. Nine parts of blood were mixed with one part of 3.8% w/v tri-Na-citrate solution. After low speed centrifuging of the mixture at room temperature, the platelet-rich plasma (PRP, corresponding to erythrocyte-free supernatant) was removed and adjusted to a standard concentration of […]. As measurement instrument, there served an universal aggregometer (Braun, Melsungen), coupled with an Eppendorf photome[…] (Netheler and Hinz, Hamburg). In the investigation, 700 μl amounts of PRP were equilibrated in the aggregometer for five minutes at 37° C. and then mixed with 58 μl of the test substance solution or of a 0.9% NaCl solution (corresponding to the blank). After an incubation time of three minutes, the addition of 35 μl collagen suspension (collagen reagent HORM®, Hormon Chemie, Munchen) initiated the aggregation. A compensation recorder registered, in the following 15 minutes, the change of the transmission. The largest change of the transmission occurring in the period of time was called the amplitude (Amp) of the aggregation curve. Aggregation-inhibiting substances bring about a reduction of this amplitude; the inhibitory action (E) of a substance is calculated according to the following formula: E=[(Amp)blank -[…] ]×100(%) Dosage-action curves are produced on the basis of which their C50 values could be calculated. The C50 value gives the end concentration of a substance in the test system which leads to a lowering of the amplitude by 50%.

male mice (NMRI) = assay: Acute toxicity in mice, seven day values; format: in vivo; conditions: intragastrally, 10080 min
Procedure: (§1) Investigation of the Acute Toxicity Method:
(§2) The determination of the acute toxicity was carried out on male mice (NMRI) with a body weight of 18 to 23 g. All experimental animals were fasted for 20 hours before commencement of the investigation. Water was available ad libitum. Four animals belonged to each dosage group. The dosage sequence was logarithmic. The test substances were administered either in the form of aqueous solutions or as suspensions in 0.8% Methocel. The administered volumes amounted, in the case of subcutaneous administration, to 10 ml/kg body weight, in the case of intragastral administration to 20 ml/kg body weight.

[3] = Acute toxicity in mice, seven day values; format: in vivo; conditions: mouse, in vivo, po, male NMRI mice, intragastrally
Procedure: as §1, §2

[4] = system: stomach ulcer of the rat induced by indomethacin; assay: Ulcer-protective action on stomach ulcer of the rat induced by indomethacin; format: in vivo; conditions: for Ulcer Inhibition in %: indomethacin 40 mg/kg
Procedure: Investigation of the Ulcer-Protective Action on Stomach Ulcer of the Rat Induced by Indomethacin. Method: Experimental animals were male rats (SIV 50), fasted for 20 hours, with a body weight of 150-200 g. Water was available ad libitum. 40 mg/kg indomethacin and the substance to be tested, as suspension in 0.8% Methocel, were simultaneously administered to the animals intragastrally. The control animals only received the corresponding dosage of indomethacin. Ten animals were used per experimental group. The administration volume amount to 10 ml/kg body weight. The animals were sacrificed five hours after administration. After removal of the stomachs and opening of the curvatura major, these were investigated with a stereo magnifying glass for the presence of ulcers. The assessment of the ulcers took place according to a point scheme proposed by M. Chaumontet et al. (Arzneim.-Forsch., 28, 2119, 1978). The ulcer index was calculated herefrom. The ulcer index of the animals treated with indomethacin and test substance was compared with that of the control animals only treated with indomethacin and the ulcer inhibition calculated therefrom in percent.

Compound: 1-(2-dimethylaminopropyl)-2-methylthio-5-oxo-4,4-diphenyl-2-pyrroline-3-carbonitrile [Compound 6]
body temperature, 30 (yeast fever of the rat; 30 minutes after 250 mg/kg IG): 37 °C | body temperature, 60 (yeast fever of the rat; 60 minutes after 250 mg/kg IG): 36 °C | body temperature, 120 (yeast fever of the rat; 120 minutes after 250 mg/kg IG): 35.2 °C | body temperature, 180 (yeast fever of the rat; 180 minutes after 250 mg/kg IG): 34.7 °C | body temperature, 240 (yeast fever of the rat; 240 minutes after 250 mg/kg IG): 35.1 °C | body temperature, 300 (yeast fever of the rat; 300 minutes after 250 mg/kg IG): 35.6 °C | Inhibition of Paw Edema in % ([1]; 125 mg/kg intragastrally): 36% | IC50 [2]: 190 ± 40 µM | LD50 (male mice (NMRI)): 1200 mg/kg

Compound: CCSC1=C(C#N)C(c2ccccc2)(c2ccccc2)C(=O)N1CCN1CCCCC1.Cl [Compound 1, 2-Ethylthio-5-oxo-4,4-diphenyl-1-(2-piperidinoethyl)-2-pyrroline-3-carbonitrile hydrochloride]
Inhibition of Paw Edema in % ([1]; 125 mg/kg intragastrally): 36% | LD50 at 168 h [3]: 1600 mg/kg

IC50 ([2]; 0.05 h): 150 ± 40 µM
Compound: CCSC1=C(C#N)C(c2ccccc2)(c2ccccc2)C(=O)N1CCCN(C)C [Compound 3, 2-ethylthio-1-(3-dimethylaminopropyl)-5-oxo-4,4-diphenyl-2-pyrroline-3-carbonitrile hydrochloride]

Compound: CCSC1=C(C#N)C(c2ccccc2)(c2ccccc2)C(=O)N1CCCN1CCOCC1 [Compound 5, 2-ethylthio-1-(3-morpholinopropyl)-5-oxo-4,4-diphenyl-2-pyrroline-3-carbonitrile]
Inhibition of Paw Edema in % ([1]; 37.5 mg/kg intragastrally): 22% | Inhibition of Paw Edema in % ([1]; 75 mg/kg intragastrally): 45% | Ulcer Inhibition in % ([4]; 100 mg/kg intragastrally): 52% | ulcer-protective action ([4]; in words): the most effective representative | LD50 at 168 h [3]: > 1600 mg/kg

Compound: CC(C)SC1=C(C#N)C(c2ccccc2)(c2ccccc2)C(=O)N1CCCN(C)C [Compound 8, 2-Isopropylthio-1-(3-dimethylaminopropyl)-5-oxo-4,4-diphenyl-2-pyrroline-3-carbonitrile]
IC50 ([2]; 0.05 h): 270 ± 50 µM | LD50 at 168 h [3]: 1400 mg/kg

Compound: CCCSC1=C(C#N)C(c2ccccc2)(c2ccccc2)C(=O)N1CCN(CC)CC [Compound 9, 1-(2-Diethylaminoethyl)-5-oxo-4,4-diphenyl-2-propylthio-2-pyrroline-3-carbonitrile]
Ulcer Inhibition in % ([4]; 250 mg/kg intragastrally): 29%

Compound: CSC1=C(C#N)C(c2ccccc2)(c2ccccc2)C(=O)N1CCCN1CCCCC1 [Compound 12, 2-methylthio-5-oxo-4,4-diphenyl-1-(3-piperidinopropyl)-2-pyrroline-3-carbonitrile]
IC50 ([2]; 0.05 h): 150 ± 20 µM | LD50 at 168 h [3]: > 1600 mg/kg

Compound: CCSC1=C(C#N)C(c2ccccc2)(c2ccccc2)C(=O)N1CCCN1CCCCC1.O=C(O)C(=O)O [Compound 15, 2-ethylthio-5-oxo-4,4-diphenyl-1-(3-piperidinopropyl)-2-pyrroline-3-carbonitrile oxalate]
body temperature, 60 (yeast fever of the rat; 60 minutes after 150 mg/kg IG): 36.6 °C | body temperature, 120 (yeast fever of the rat; 120 minutes after 150 mg/kg IG): 35.8 °C | body temperature, 180 (yeast fever of the rat; 180 minutes after 150 mg/kg IG): 35.9 °C | body temperature, 240 (yeast fever of the rat; 240 minutes after 150 mg/kg IG): 36.4 °C | body temperature, 300 (yeast fever of the rat; 300 minutes after 150 mg/kg IG): 37 °C | Inhibition of Paw Edema in % ([1]; 150 mg/kg intragastrally): 39% | Ulcer Inhibition in % ([4]; 150 mg/kg intragastrally): 29% | LD50 at 168 h [3]: 700 mg/kg

IC50 ([2]; 0.05 h): 140 ± 60 µM
Compound: CCSC1=C(C#N)C(c2ccccc2)(c2ccccc2)C(=O)N1CCCN(CC)CC [Compound 16, 1-(3-diethylaminopropyl)-2-ethylthio-5-oxo-4,4-diphenyl-2-pyrroline-3-carbonitrile hydrochloride]

IC50 ([2]; 0.05 h): 60 µM
Compound: CCSC1=C(C#N)C(c2ccccc2)(c2ccccc2)C(=O)N1CCCN [Compound 17a, 1-(3-Aminopropyl)-2-ethylthio-5-oxo-4,4-diphenyl-2-pyrroline-3-carbonitrilehydrochloride]
aggregation-inhibiting properties ([2]; in words): the most effective representative

Compound: CSC1=C(C#N)C(c2ccc(N(C)C)cc2)(c2cccnc2)C(=O)N1CCCN(C)C (centres unmarked) [Compound 21, 4-(4-Dimethylaminophenyl)-1-(3-dimethylaminopropyl)-2-methylthio-5-oxo-4-(3-pyridyl)-2-pyrroline-3-carbonitrile]
IC50 ([2]; 0.05 h): 160 ± 20 µM | LD50 at 168 h [3]: 1200 mg/kg
